Results taken from patent US6245765A, “Mesylate dihydrate salts of 5-(2-(4-(1,2-benzisothiazol-3-yl)-1-piperazinyl)-ethyl)-6-chloro-1,3-dihyd ro-2(1H)-indol-2-one (=ziprasidone), its preparation and its use as dopamine D2 antagonist” (Pfizer Inc, priority 1999, dated 2001).
Counter-ions that a name gives are not always drawn.

Columns and labels:
[1] = Aqueous solubility (solubility in water); assay type: physicochemical
[2] = as stated in U.S. Pat. No. 5,312,925; cited from earlier work

Row | SOLUBILITY IN WATER ([1]; aqueous solubility of ziprasidone mesylate polymorphs, water) [mg/mL] | aqueous solubility (in words) ([1]; qualitative statement, dihydrates compared with ziprasidone hydrochloride monohydrate) | Structure (SMILES) | hygroscopic stability (in words) [2]
1 | 1.10 | – | O=C1Cc2cc(CCN3CCN(c4nsc5ccccc45)CC3)c(Cl)cc2N1 [dihydrate (needle), 5-[2-[4-(1,2-benzisothiazol-3-yl)-1-piperazinyl]ethyl]-6-chloro-1,3-dihydro-2H-indol-2-one Methanesulfonate Dihydrate (Needle Crystals)] | –
2 | – | low aqueous solubility | O=C1Cc2cc(CCN3CCN(c4nsc5ccccc45)CC3)c(Cl)cc2N1 [ziprasidone hydrochloride monohydrate] | substantially hygroscopically stable
